Patent US20170101438A1, “COSMETIC OR PHARMACEUTICAL METHODS FOR THE TREATMENT AND/OR CARE OF THE SKIN AND/OR HAIR USING TRIPEPTIDES CAPABLE OF STIMULATING CYCLIC ADENOSINE MONOPHOSPHATE SYNTHESIS” (Lipotec, S.A., priority 2009, published 2017)

Experiments:
[1] = system: human G361 melanocyte cell line; assay: cAMP synthesis stimulation assay (competitive ELISA); type: cell-based; details: G361 cells, normalized to average basal cAMP values
Procedure: cAMP synthesis stimulation was assessed in the human G361 melanocyte cell line in the presence of the peptides of the invention. The cells were seeded (10^6 cells/plate 25 cm^2) and incubated for 24 hours in McCoy's complete medium, after which the peptides were added to 10 μM and were incubated for another 24 hours. 40 μM forskolin was used as a positive control. The cells were centrifuged and the supernatants were collected, and the cAMP levels were determined by carrying out a competitive ELISA assay following the protocols of the commercial kit (Cayman, Ref 0.581001)

[2] = system: human G361 melanocyte cell line; assay: Melanogenesis stimulation (melanin extracted, absorbance at 470 nm); type: cell-based; details: 4 days, G361 cells, normalized to number of cells
Procedure: A human G361 melanocyte cell line was incubated for 4 days on a 12-well plate in presence of the peptide at various concentrations, after which the cells were trypsinized, the melanin was extracted and was quantified by measuring the absorbance at 470 nm in a spectrophotometer. The values obtained were normalized with regards to the number of cells. The concentration of melanin was determined in pg/cell using a standard regression analysis obtained with synthetic melanin at known concentrations.

C=C[C@@]1(C)CC(=O)[C@]2(O)[C@@]3(C)[C@@H](O)CCC(C)(C)[C@@H]3[C@H](O)[C@H](OC(C)=O)[C@@]2(C)O1 [Forskolin, reference compound]
cAMP increase ([1]; positive control 40 μM): 117%

Palm-L-Tyr-L-Tyr-L-Met-NH2
cAMP increase ([1]; peptide 10 μM, 24 hours): 57%
Melanin synthesis stimulation ([2]; 10 μM): 64%
Melanin synthesis stimulation ([2]; 50 μM): 79%
Melanin synthesis stimulation ([2]; 100 μM): 138%
